One data set deals with T1, Human SCD-1 (Homo sapiens, UniProt O00767).
T1 construct: adding 125 μg of microsomal fraction of HepG2 cells; host or cells: HepG2 human hepatocarcinoma cells (microsomal fraction)
T1 sequence (O00767 1-359): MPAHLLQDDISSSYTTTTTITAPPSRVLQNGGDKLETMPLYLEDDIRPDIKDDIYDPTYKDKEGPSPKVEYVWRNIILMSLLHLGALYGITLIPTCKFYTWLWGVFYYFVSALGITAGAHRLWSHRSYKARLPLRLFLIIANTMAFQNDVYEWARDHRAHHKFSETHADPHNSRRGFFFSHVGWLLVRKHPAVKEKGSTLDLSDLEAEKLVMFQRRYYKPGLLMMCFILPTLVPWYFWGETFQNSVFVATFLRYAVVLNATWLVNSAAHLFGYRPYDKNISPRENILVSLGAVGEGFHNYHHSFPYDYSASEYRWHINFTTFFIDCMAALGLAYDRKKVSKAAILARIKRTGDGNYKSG
Description: Human SCD-1 enzymatic activity from microsomes of HepG2 cells (conversion of stearic acid into oleic acid). It is filed as biochemical. Conditions: 10 μM compound; microsomal fraction of HepG2 cells; relative to carrier 0.1% DMSO; read-out: HSCD-1 (HEPG2) % inh. (10 μM). The procedure:
In vitro: Human SCD-1 enzymatic activity from microsomes of HepG2 cells after treatment with inhibitory compounds (inhibition %).
Human hepatocarcinoma HepG2 cells (ATCC, HB-8065) are grown to confluence and then trypsinized. The cell pellet is taken up in 10 mM Tris buffer (pH 7.4), saccharose (250 mM) DTT (1 mM) and then the cells are lyzed by sonication. The microsomes are obtained after centrifugation at 10,000 g for 20 minutes a 4° C. followed by centrifugation of the supernatant at 100,000 g for 60 minutes a 4° C. The pellet is taken up in 10 mM Tris buffer (pH 7.4) saccharose (250 mM) at 4° C. and the microsomal proteins are assayed and stored at −196° C. (liquid nitrogen).
The enzymatic reaction measures the conversion of stearic acid (a C18:0 fatty acid) into oleic acid (C18:1 fatty acid) by SCD-1. The enzymatic reaction is started by adding 125 μg of microsomal fraction of HepG2 cells to tubes (total reaction volume of 500 μl) containing 62 μM of stearic acid (45 μM of stearic acid and 17 μM of [^14C] stearic acid) in a phosphate buffer at 100 mM (pH 7.16) with 7.2 mM of ATP, 0.54 mM of CoA, 6 mM of MgCl2, 0.8 mM of NADH and the inhibitory compound or the carrier (0.1% DMSO). The tubes are incubated for 20 minutes at 37° C. and the enzymatic reaction is then stopped by adding KOH (12%) and saponification for 30 minutes at 80° C. After acidification (3N HCl), the fatty acids are extracted twice with ethyl ether, evaporated under nitrogen before being taken up with a methanol/dichloromethane (3:1) mixture. The product of the reaction (C18:1) is separated from the substrate of the reaction (C18:0) by HPLC (Perkin Elmer, C18 reverse phase column) coupled to a on-line radioactivity detector (FlowOne). Enzymatic activity is calculated in picomoles of stearic acid converted into oleic acid per minute and per mg of protein. For each inhibitory compound, an inhibition % is determined relatively to the reference enzymatic activity (carrier 0.1% DMSO). Sterculic acid is the reference inhibitory compound (Gomez F. E., Bauman D. E., Ntambi J. M., Fox B. G. Effects of sterculic acid on stearoyl-CoA desaturase in differentiating […] adipocytes. Biochem Biophys Res Commun. 300 316-326 (2003)).

The melting point is the temperature of the solid-liquid transition. As for `Cn1nc(N2CCC(Oc3cc(C(F)(F)F)ccc3Cl)CC2)c(=O)n(C)c1=O` [Example 29, 6-[4-(2-chloro-5-trifluoromethyl-phenoxy)-piperidin-1-yl]-2,4-dimethyl-2H-[1,2,4]triazine-3,5-dione], the melting point was 160 °C. Moreover, the inhibition at 10 µM at Human SCD-1 turned out to be 71%.
Regarding `Cn1c(=O)c(N2CCC(Oc3ccccc3C(F)(F)F)CC2)nn(CCO)c1=O` [Example 89, 2-(2-hydroxy-ethyl)-4-methyl-6-[4-(2-trifluoromethyl-phenoxy)-piperidin-1-yl]-2H-[1,2,4]triazine-3,5-dione], the melting point came out at 112 °C. The inhibition at 10 µM on Human SCD-1 came out at 100%.
For `Cn1nc(N2CCC(Oc3ccc(F)cc3)CC2)c(=O)n(C)c1=O` [Example 33, 6-[4-(4-fluoro-phenoxy)-piperidin-1-yl]-2,4-dimethyl-2H-[1,2,4]triazine-3,5-dione], in that order: 70 °C and 48%.
The corresponding values for `Cn1c(=O)c(N2CCC(Oc3ccccc3C(F)(F)F)CC2)nn(C2CCCCC2=O)c1=O` (stereo not shown) [Example 86, 4-methyl-2-(2-oxo-cyclohexyl)-6-[4-(2-trifluoromethyl-phenoxy)-piperidin-1-yl]-2H-[1,2,4]triazine-3,5-dione] are 65 °C and 90%.
`CCOCCOCCn1nc(N2CCC(Oc3ccccc3C(F)(F)F)CC2)c(=O)n(C)c1=O` [Example 88, 2-[2-(2-ethoxy-ethoxy)-ethyl]-4-methyl-6-[4-(2-trifluoromethyl-phenoxy)-piperidin-1-yl]-2H-[1,2,4]triazine-3,5-dione] registered a melting point of 44 °C. In addition, the inhibition at 10 µM on Human SCD-1 was found to be 48%.
The corresponding values for `Cn1c(=O)[nH]nc(N2CCC(Oc3ccccc3C(F)(F)F)CC2)c1=O` [Example 85, 4-methyl-6-[4-(2-trifluoromethyl-phenoxy)-piperidin-1-yl]-2H-[1,2,4]triazine-3,5-dione] are 150 °C and 95%.
For `Cn1nc(N2CCN(C(=O)c3cc(F)ccc3C(F)(F)F)CC2)c(=O)n(C)c1=O` [Example 42, 6-[4-(5-fluoro-2-trifluoromethyl-benzoyl)-piperazin-1-yl]-2,4-dimethyl-2H-[1,2,4]triazine-3,5-dione], the melting point turned out to be 87 °C. In addition, the inhibition at 10 µM on Human SCD-1 was 80%.
The corresponding values for `Cn1c(=O)c(N2CCC(Oc3ccccc3C(F)(F)F)CC2)nn(-c2ccc(C#N)cc2)c1=O` [Example 83, 4-{4-methyl-3,5-dioxo-6-[4-(2-trifluoromethyl-phenoxy)-piperidin-1-yl]-4,5-dihydro-3H-[1,2,4]triazin-2-yl}-benzonitrile] are 72 °C and 79%.
For `Cn1nc(N2CCN(C(=O)c3ccccc3C(F)(F)F)CC2)c(=O)[nH]c1=O` [Example 2, 2-methyl-6-[4-(2-trifluoromethyl-benzoyl)-piperazin-1-yl]-2H-[1,2,4]triazine-3,5-dione], in that order: 146 °C and 63%.
The corresponding values for `CCCCCCCn1c(=O)[nH]nc(N2CCC(Oc3ccccc3Cl)CC2)c1=O` [Example 76, 6-[4-(2-chloro-phenoxy)-piperidin-1-yl]-4-heptyl-2H-[1,2,4]triazine-3,5-dione] are 95 °C and 62%.
As to `Cc1ccccc1-n1nc(N2CCC(Oc3ccccc3C(F)(F)F)CC2)c(=O)n(C)c1=O` [Example 79, 4-methyl-2-o-tolyl-6-[4-(2-trifluoromethyl-phenoxy)-piperidin-1-yl]-2H-[1,2,4]triazine-3,5-dione], the melting point turned out to be 106 °C. For the same compound, at Human SCD-1, the inhibition at 10 µM was 54%.
